Assay results published in the supplement of paper PMC10307832.

Tests used:
Assay in all cases: relative viability (nuclei count vs DMSO), 5 days (fraction); higher = more cells survive
[1] = compound: CN(C)CC1=CC(=CC=C1)N=C(C2=CC=CC=C2)C3=C(NC4=C3C=CC(=C4)C(=O)N(C)C)O + O=C(CCCCCCC(=O)Nc1ccccc1)NO [Vorinostat] (partner 1 µM)
How it was run: (§1)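 A single step with final 0.05% Triton X-100, 1% formaldehyde and 1 ug/ml Hoechst fixed the cells and stained nuclei 5 days after treatment. Lung cancer cell lines in 1536-well plates had been treated by pin tool the day after seeding with one drug alone or a fixed anchor-drug dose plus five library-drug doses (not always all listed) in √10 steps, and nuclei were counted on 4× images. Relative viability is the ratio of nuclei in treated wells to nuclei in vehicle wells, taken as the median of duplicate plates.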

[2] = compound: CN(C)CC1=CC(=CC=C1)N=C(C2=CC=CC=C2)C3=C(NC4=C3C=CC(=C4)C(=O)N(C)C)O + Cc1nc(NC(=O)N2CCC[C@H]2C(N)=O)sc1-c1ccnc(C(C)(C)C(F)(F)F)c1 [Alpelisib] (partner 2 µM)
How it was run: as §1

[3] = compound: CN(C)CC1=CC(=CC=C1)N=C(C2=CC=CC=C2)C3=C(NC4=C3C=CC(=C4)C(=O)N(C)C)O + CC1(C)CCC(c2ccc(Cl)cc2)=C(CN2CCN(c3ccc(C(=O)NS(=O)(=O)c4ccc(N[C@H](CCN5CCOCC5)CSc5ccccc5)c(S(=O)(=O)C(F)(F)F)c4)cc3)CC2)C1 [Navitoclax] (partner 0.5 µM)
How it was run: as §1

[4] = compound: CN(C)CC1=CC(=CC=C1)N=C(C2=CC=CC=C2)C3=C(NC4=C3C=CC(=C4)C(=O)N(C)C)O + C[C@]1(O)C[C@@H](c2nc(-c3ccc4ccc(-c5ccccc5)nc4c3)c3c(N)nccn32)C1 [Linsitinib] (partner 1 µM)
How it was run: as §1

Cell Line	relative viability ([1]; first compound 0.08 µM)	relative viability ([1]; first compound 0.253 µM)	relative viability ([1]; first compound 0.8 µM)	relative viability ([1]; first compound 2.53 µM)	relative viability ([1]; first compound 8 µM)	relative viability ([2]; first compound 0.08 µM)	relative viability ([2]; first compound 0.253 µM)	relative viability ([2]; first compound 0.8 µM)	relative viability ([2]; first compound 2.53 µM)	relative viability ([2]; first compound 8 µM)	relative viability ([3]; first compound 0.08 µM)	relative viability ([3]; first compound 0.253 µM)	relative viability ([3]; first compound 0.8 µM)	relative viability ([3]; first compound 2.53 µM)	relative viability ([3]; first compound 8 µM)	relative viability ([4]; first compound 0.08 µM)	relative viability ([4]; first compound 0.253 µM)	relative viability ([4]; first compound 0.8 µM)	relative viability ([4]; first compound 2.53 µM)	relative viability ([4]; first compound 8 µM)
A-427	0.887	0.86	0.89	0.872	0.873	1.04	1.04	1.09	1.03	1.07	0.96	0.961	1.01	0.92	0.964	1.08	1.1	1.13	1.01	1.06
COR-L23	0.539	0.44	0.468	0.407	0.396	0.796	0.757	0.818	0.632	0.575	1.02	1.07	1.07	0.77	0.791	1.06	0.889	1.07	0.878	0.759
NCI-H520	0.715	0.644	0.831	0.621	0.536	0.865	0.871	0.825	0.725	0.656	1.04	1.23	1.07	1.05	0.953	0.896	0.878	0.919	0.834	0.97
NCI-H23	–	0.655	0.688	0.649	0.549	0.705	0.607	0.754	0.6	0.573	0.9	0.911	0.884	0.99	0.732	0.628	0.73	0.598	0.554	0.531
EKVX	0.778	0.726	0.648	0.858	0.773	0.878	0.847	0.843	0.886	0.879	0.908	0.82	0.956	0.885	1	1.1	0.925	1.05	1.06	1.07
HCC-78	0.455	0.668	0.379	0.464	0.427	0.364	0.324	0.356	0.363	0.318	0.894	0.734	0.807	0.75	0.769	0.62	0.452	0.475	0.535	0.511
NCI-H596	0.575	0.72	0.585	0.554	0.862	0.504	0.491	0.459	0.536	0.447	0.967	0.93	0.911	0.977	0.83	1.11	1.07	1.06	1	1.11
UMC-11	0.318	0.399	0.41	0.364	0.34	0.972	0.882	1.12	0.923	0.968	0.357	0.269	0.264	0.328	0.32	1.01	0.986	0.985	0.999	0.926
NCI-H460	0.722	0.702	0.716	0.704	0.728	0.521	0.454	0.467	0.401	0.229	1.05	1.13	1.07	1.05	1.05	0.841	0.758	0.893	0.471	0.54
EMC-BAC-2	0.476	0.548	0.463	0.463	0.653	0.763	0.743	0.71	0.738	0.67	1.13	1.15	1.17	1.18	1.1	0.884	0.797	0.778	0.787	0.717
NCI-H647	0.477	0.561	0.423	0.421	0.649	1.2	1.14	1.14	0.98	0.66	1.15	0.962	1.34	0.916	0.976	1.29	1.11	0.858	1.12	0.795
H3255	0.826	0.987	–	0.777	0.845	0.781	0.754	0.635	0.635	0.84	0.608	0.457	0.514	0.545	0.552	0.881	0.959	0.924	0.954	1.03
IA-LM	0.911	0.848	0.903	0.958	1.02	–	0.806	0.942	0.88	1.03	–	0.848	0.766	0.915	1.02	0.666	0.645	0.773	0.767	0.544
NCI-H1975	0.709	0.669	0.705	0.661	0.604	0.632	0.646	0.545	0.553	0.471	1.07	1.06	0.989	1.08	1.06	0.935	0.999	0.824	0.871	0.855
NCI-H2023	0.594	0.685	0.765	0.368	0.589	0.555	0.685	0.553	0.442	0.451	1.02	0.97	0.952	0.872	0.984	0.625	0.607	0.533	0.563	0.625
NCI-H1793	0.826	0.812	0.563	0.821	0.859	0.633	0.886	0.58	0.812	0.814	0.387	0.439	0.269	0.492	0.406	0.96	0.84	0.617	1.03	0.806
